Results reported in ChEMBL document CHEMBL1143218 (Bioorg Med Chem Lett, 2008).

Assays:
[1] = target: Sodium-dependent serotonin transporter (Homo sapiens, UniProt P31645)
[2] = target: Sodium-dependent dopamine transporter (Homo sapiens, UniProt Q01959)
Sodium-dependent dopamine transporter, sequence (Q01959 whole entry): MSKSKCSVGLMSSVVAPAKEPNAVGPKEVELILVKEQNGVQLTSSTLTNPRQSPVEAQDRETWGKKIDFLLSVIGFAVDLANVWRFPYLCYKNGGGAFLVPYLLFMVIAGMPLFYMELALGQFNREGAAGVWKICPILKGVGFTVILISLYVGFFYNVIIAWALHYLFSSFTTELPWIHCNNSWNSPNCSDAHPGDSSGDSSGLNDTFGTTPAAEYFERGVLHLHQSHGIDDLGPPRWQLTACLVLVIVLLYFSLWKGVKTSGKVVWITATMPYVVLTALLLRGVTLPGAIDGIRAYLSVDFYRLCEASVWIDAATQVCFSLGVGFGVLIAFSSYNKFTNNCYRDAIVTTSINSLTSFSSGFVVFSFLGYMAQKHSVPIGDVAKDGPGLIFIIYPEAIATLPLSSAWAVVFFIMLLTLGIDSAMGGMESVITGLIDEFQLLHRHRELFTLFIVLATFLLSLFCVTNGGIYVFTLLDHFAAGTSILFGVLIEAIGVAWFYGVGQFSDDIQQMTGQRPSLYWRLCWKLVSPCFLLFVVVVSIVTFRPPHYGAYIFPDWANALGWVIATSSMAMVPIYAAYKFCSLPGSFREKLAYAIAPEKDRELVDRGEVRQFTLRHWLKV

Sodium-dependent serotonin transporter, sequence (P31645 whole entry): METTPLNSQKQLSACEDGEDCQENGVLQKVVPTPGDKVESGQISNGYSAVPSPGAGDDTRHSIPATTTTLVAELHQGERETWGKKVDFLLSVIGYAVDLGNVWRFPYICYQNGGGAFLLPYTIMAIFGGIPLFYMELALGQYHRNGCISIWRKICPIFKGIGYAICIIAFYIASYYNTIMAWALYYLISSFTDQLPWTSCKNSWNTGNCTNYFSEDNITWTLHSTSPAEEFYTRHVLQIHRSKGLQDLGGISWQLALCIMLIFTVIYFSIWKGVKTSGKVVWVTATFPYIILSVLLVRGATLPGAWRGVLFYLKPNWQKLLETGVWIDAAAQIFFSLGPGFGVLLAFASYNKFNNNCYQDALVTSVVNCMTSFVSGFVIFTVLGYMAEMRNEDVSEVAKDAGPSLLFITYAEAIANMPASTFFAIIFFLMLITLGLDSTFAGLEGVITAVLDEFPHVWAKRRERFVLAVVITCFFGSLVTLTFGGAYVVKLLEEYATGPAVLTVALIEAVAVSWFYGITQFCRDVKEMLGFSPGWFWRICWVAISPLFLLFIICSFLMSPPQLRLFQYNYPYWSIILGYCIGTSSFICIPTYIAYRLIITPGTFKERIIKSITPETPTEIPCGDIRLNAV

Structure (SMILES)	IC50 [1]	IC50 [2]
NCC1CC1(C(=O)N1CCCCCC1)c1ccccc1 (racemic)	0.64 µM	> 10 µM
CCN(C)C(=O)C1(c2ccccc2)CC1CN (racemic)	0.83 µM	2.4 µM
CC(C)N(C(=O)C1(c2ccccc2)CC1CNC(=O)CN)C(C)C (racemic)	> 10 µM	4.6 µM
NCC1CC1(C(=O)N1CCOCC1)c1ccccc1 (racemic)	1.7 µM	7.4 µM
NCC1CC1(C(=O)Nc1ccccc1)c1ccccc1 (racemic)	> 10 µM	> 10 µM
CCN(CC)C(=O)C1(c2ccccc2)CC1CNCc1ccco1 (racemic)	> 10 µM	> 10 µM
NCC1CC1(C(=O)NC1CC1)c1ccccc1 (racemic)	> 10 µM	> 10 µM
CCN(CC)C(=O)C1(c2ccccc2)CC1CNCc1cccnc1 (racemic)	> 10 µM	> 10 µM
NCC1CC1(C(=O)NCc1ccccc1)c1ccccc1 (racemic)	3.2 µM	> 10 µM
CCN(CC)C(=O)C1(c2ccccc2)CC1CNCC(C)C (racemic)	> 10 µM	> 10 µM
NCC1C[C@@]1(C(=O)N1CCCC1)c1ccccc1 (mixture of isomers)	–	> 10 µM
NCC(=O)NCC1CC1(C(=O)N1CCc2ccccc21)c1ccccc1 (racemic)	0.077 µM	> 10 µM
NCC1CC1(C(=O)N1CCCCC1)c1ccccc1 (racemic)	1.2 µM	4.6 µM
CCNC(=O)[C@@]1(c2ccccc2)CC1CN (mixture of isomers)	> 10 µM	> 10 µM
NCC1CC1(C(=O)N1CCc2ccccc21)c1ccccc1 (racemic)	0.013 µM	3.9 µM
CCN(C(=O)C1(c2ccccc2)CC1CN)C(C)(C)C (racemic)	> 10 µM	> 10 µM
NCC1CC1(C(=O)C1NCCc2ccccc21)c1ccccc1 (racemic)	–	> 10 µM
CCN(C(=O)C1(c2ccccc2)CC1CN)C1CCCCC1 (racemic)	7.5 µM	> 10 µM
NCC(=O)NCC1CC1(C(=O)C1NCCc2ccccc21)c1ccccc1 (racemic)	–	> 10 µM
NCC1CC1(C(=O)N1CCCc2ccccc21)c1ccccc1 (racemic)	0.1 µM	> 10 µM
CC(C)N(C(=O)[C@@]1(c2ccccc2)CC1CN)C(C)C (mixture of isomers)	> 10 µM	> 10 µM
CCN(CC)C(=O)C1(c2ccccc2)CC1CNCc1ccncc1 (racemic)	> 10 µM	> 10 µM

Results, then the molecule that gave them:

IC50 [1]	IC50 [2]	Structure (SMILES)
2 µM	> 10 µM	CCCCN(CC)C(=O)C1(c2ccccc2)CC1CN (racemic)
1.7 µM	> 10 µM	CCCN(CC)C(=O)C1(c2ccccc2)CC1CN (racemic)
> 10 µM	4.5 µM	CCN(CC)C(=O)C1(c2ccccc2)CC1CN(C)C (racemic) [N,N-DIMETHYL MILNACIPRAN]
2.2 µM	> 10 µM	CCN(CC)C(=O)[C@@]1(c2ccccc2)C[C@H]1CNC(=O)CN (racemic)
1.3 µM	> 10 µM	CCN(CCOC)C(=O)C1(c2ccccc2)CC1CN (racemic)
0.16 µM	> 10 µM	CCN(Cc1ccccc1)C(=O)C1(c2ccccc2)CC1CN (racemic)
3.5 µM	6.2 µM	CCN(CC)C(=O)C1(c2ccccc2)CC1CNCc1ccccn1 (racemic)
1.3 µM	> 10 µM	CCNCC1CC1(C(=O)N(CC)CC)c1ccccc1 (racemic)
> 10 µM	> 10 µM	CCN(CC)C(=O)C1(c2ccccc2)CC1CNCC1CCCC1 (racemic)
> 10 µM	> 10 µM	CCCCNCC1CC1(C(=O)N(CC)CC)c1ccccc1 (racemic)
1.1 µM	> 10 µM	CCN(CC)C(=O)C1(c2ccccc2)CC1CNCC(OC)OC (racemic)
0.28 µM	> 10 µM	C=CCN(CC)C(=O)C1(c2ccccc2)CC1CN (racemic)
4.8 µM	> 10 µM	CCN(CC)C(=O)C1(c2ccccc2)CC1CNCc1cnco1 (racemic)
5.4 µM	> 10 µM	CCN(CC)C(=O)[C@@]1(c2ccccc2)CC1CNC (mixture of isomers)
4.4 µM	> 10 µM	CCN(CC)C(=O)C1(c2ccccc2)CC1CNCc1ccc[nH]1 (racemic)
4.4 µM	> 10 µM	CCN(C(=O)C1(c2ccccc2)CC1CN)c1ccccc1 (racemic)
1.6 µM	> 10 µM	CCN(CC)C(=O)C1(c2ccccc2)CC1CNCc1ncco1 (racemic)
